Data as given in patent US8435947B2, “Endothelial nitric oxide synthase antagonists and uses thereof for inhibiting oxygen toxicity” (Medical College of Georgia Research Institute, Inc., priority 2010, dated 2013).

Tests used:
[1] = tested on: PAEC; details: peptide 20 μM, 95% oxygen 24 h
Procedure: (§1) Third- to sixth-passage cells in monolayer culture were maintained in RPMI 1640 medium containing 4% fetal bovine serum and antibiotics (10 units/ml penicillin, 100 μg/ml streptomycin, 20 μg/ml gentamicin, and 2 μg/ml Fungizone) and were used 2 or 3 days after confluence.

[2] = tested on: pulmonary artery endothelial cells; assay: NO production in endothelial cells (NOx, SIEVERS); format: cell-based, pigs
Procedure: (§2) After wild-type and eNOS mutant transfection, ionomycin (2 μm) was added to the cells. After 30 min of incubation, culture medium was collected and ethanol-precipitated to remove proteins. 50 μl of the reaction mix were loaded to the SIEVERS machine for NOx measurement according to standard manufacturer's instructions (Church, J. E., and Fulton, D. (2006) J. Biol. Chem. 281, 1477-88). In some experiments, N^G-nitro-1-arginine methyl ester (L-NAME), a specific eNOS inhibitor, was used to inhibit NO production. […] For superoxide assay, after incubation with ABS peptides, the spin trap CMH was added to the cells. Superoxide from cells was trapped for 1 h, and then cells were scraped and subjected to EPR spectroscopy as previously described (Sud, N., et al. (2008) Am. J. Physiol. Cell Physiol. 294, C1407-18). Protein contents in the cell lysates were determined by Lowry's method.
To measure NO production, endothelial cells were incubated with ABS peptides for 3 h. Then ionomycin (2 μM) was added to the cells. After an additional 30 min, culture medium was collected and ethanol-precipitated to remove proteins. 50 μl of the reaction mix were loaded to the SIEVERS machine for NOx measurement as described above. For superoxide assay, after incubation with ABS peptides, the spin trap CMH was added to the cells. […]

[3] = tested on: purified eNOS; assay: NO (NOx) production by purified eNOS in vitro; format: biochemical, human; details: peptide 20 μm; for β-actin-induced increase in NO production: β-actin 2.0 μm
Procedure: NO production was determined by measuring NOx (NO2 and NO3). Purified eNOS and β-actin were preincubated at room temperature for 30 min and then added to a 50-μl reaction mix containing 50 mM HEPES buffer, 1 mM NADPH, 100 μmM Larginine, 1 mmM CaCl2, 10 μg/ml calmodulin, 4 μM BH4. The mixture was incubated at 37° C. for 30 min. 40 μl of the reaction mix were loaded to the SIEVERS machine for NOx measurement according to standard manufacturer's instructions as previously described (Church, J. E., and Fulton, D. (2006) J. Biol. Chem. 281, 1477-88). For experiments with ABS peptides, β-actin and peptides were preincubated at room temperature for 20 min before eNOS protein was added.

[4] = tested on: purified eNOS; assay: L-citrulline assay with purified eNOS; format: biochemical, human; details: peptide 20 μm; for β-actin-induced increase in L-citrulline production: β-actin 2.0 μm
Procedure: (§3) Wild-type and mutant eNOS proteins in COS-7 cells were purified. The catalytic activity of purified eNOS mutant protein was assayed by the measurement ofl-[^3H]citrulline formation from 1-[^3H]arginine as reported previously (Su, Y., et al. (2003) Am. J. Physiol. Cell Physiol. 284, C1542-49). To determine NADPH consumption by eNOS, 0.3 mm NADPH was added to 200 μl of reaction mix containing 1 μg eNOS, 1 μM FAD, 1 μmM FMN, 10 μg/ml calmodulin, 100 μMm L-arginine, 1 mM CaCl2, 10 μg/ml calmodulin, and 2.5 mM ATP. The reaction was monitored at […] for 10 min. NADPH consumption was calculated by using a molar extinction coefficient 6.22 mm^−·cm^−1. The superoxide formation from purified eNOS mutant was measured by spin trapping and EPR spectroscopy.

[5] = tested on: purified eNOS; assay: superoxide generation by purified eNOS, spin-trapping EPR spectroscopy; format: biochemical, human; details: peptide 20 μm; for β-actin-induced decrease in superoxide formation: β-actin 2.0 μm
Procedure: eNOS-derived superoxide generation was measured by electron paramagnetic resonance (EPR) spectroscopy and spin trapping as previously described (Sud, N., et al. (2008) Am. J. Physiol. Cell Physiol. 294, C1407-18). 50 μl of reaction mix containing 50 mM HEPES buffer, 1 mM NADPH, 100 μM Larginine, 1 mM CaCl2, 10 μg/ml calmodulin, and 1 μg of purified eNOS were incubated at 37° C. for 60 min. 12.5 μl of spin probe N1-hydroxy-3-methoxy-carbonyl-2,2,5,5-tetramethyl-pyrrolidine (CMH) in EPR buffer were added to the reaction mix. 35 μl of the final reaction mix were loaded into a 50-μl capillary tube and analyzed with a MiniScopeMS200 EPR (Magnetech, Berlin, Germany). A reaction curve was generated by adding 1 unit/ml of xanthine oxidase into 500 μM xanthine solution in buffered PBS (pH 7.4), which contains 5 μM diethyldithiocarbamate and 25 μMm desferrioxamine to inhibit any conversion of superoxide into either hydrogen peroxide or hydroxyl radical via Fenton reaction. Reactions were allowed to proceed at 25° C. for up to 40 min. Following incubation, ˜35 μl of each reaction mixture was loaded into a 50 μl capillary tube and analyzed immediately with EPR spectroscopy. EPR spectra were analyzed for amplitude using […] software (version 2.02, Magnettech). Given that 1 unit of xanthine oxidase will convert 1 μmol of xanthine per minute at 25° C., based on this standard curve, it was calculated that 1 EPR amplitude units is equivalent of 0.35 pmol of superoxide.

[6] = tested on: purified eNOS; assay: NADPH consumption assay with purified eNOS; format: biochemical, human; details: peptide 20 μm, β-actin 2.0 μm, absence of BH4
Procedure: as §3

[7] = tested on: PAEC; assay: superoxide radicals in hyperoxic PAEC (DHE fluorescence); format: cell-based, pigs; details: 95% oxygen 24 h, tiron 5 mM
Procedure: After hyperoxic exposure, cells were loaded with 10 μM dihydroethidine (DHE) for 30 min. […] The excitation and emission wavelengths were 510 nm and 590 nm.

[8] = tested on: pulmonary artery endothelial cells; assay: endothelial monolayer wound repair; format: cell-based, pigs; details: PEG-SOD 100 units/ml, NOC-18 10 μm
Procedure: Pulmonary artery endothelial cells were incubated with ABS peptides for 3 h. Then endothelial monolayer wound repair in the absence and presence of PEG-SOD (100 units/ml) and NOC-18 (10 μm) was measured as previously reported (Su, Y., et al. (2006) FASEB J. 20, 1443-51). Endothelial monolayer wound repair distance was expressed as the width of the wound before treatment subtracted by that after treatment.

[9] = tested on: pulmonary artery endothelial cells; assay: superoxide formation in endothelial cells (CMH spin trap, EPR); format: cell-based, pigs; details: ETU 100 μm
Procedure: To measure NO production, endothelial cells were incubated with ABS peptides for 3 h. Then ionomycin (2 μM) was added to the cells. After an additional 30 min, culture medium was collected and ethanol-precipitated to remove proteins. 50 μl of the reaction mix were loaded to the SIEVERS machine for NOx measurement as described above. For superoxide assay, after incubation with ABS peptides, the spin trap CMH was added to the cells. Superoxide from cells was trapped for 1 h, and then cells were scraped and subjected to EPR spectroscopy.

[10] = tested on: COS-7 cells; assay: superoxide formation in COS-7 cells transfected with wild type or mutant eNOS; format: cell-based; details: ETU 100 μm or PEG-SOD
From the text: Human eNOS gene (GenBank™ M93718.1) was cloned into HindIII and XbaI sites of pcDNA3 vector and regarded as wild-type eNOS. […] The site-directed mutagenesis was custom-made by Retrogen (San Diego, Calif.). The sequences of both strands of the gene in the mutated region were verified by using ABI 3730 automated sequencer. Plasmids containing wild-type eNOS cDNA or eNOS mutant cDNA were transfected into COS-7 cells using Lipofectamine LTX with PLUS reagent (Invitrogen, Carlsbad, Calif.) according to the manufacturer's protocol. 48 h after transfection, cells were used for co-immunoprecipitation and assays for NO and superoxide generation.
as §2, with “Superoxide from cells was trapped for 1 h, and then cells were scraped and subjected to EPR spectroscopy as previously described (Sud, N., et al. (2008) Am. J. Physiol. Cell Physiol. 294, C1407-18).” left out

[11] = target: T1, F-actin (polymerized human β-actin) (Homo sapiens, UniProt P60709); assay: F-actin binding spin-down assay; details: peptide 10 μM, 23 μM F-actin, 30 min, 150,000×g 2 h
T1 construct: purchased Cytoskeleton, Inc. (Denver, Co)
Procedure: The binding capacities of the peptides to β-actin were measured by using an F-actin binding spin-down assay kit from Cytoskeleton, Inc. (Denver, Co). Monomeric human β-actin was polymerized into F-actin in F-actin buffer (5 mM Tris-HCl, pH 7.8, 1 mM ATP, 0.5 mM DTT, 0.2 mmM CaCl2, 0.2 mM MgCl2, and 100 mM KCl) for 1 h at 24° C. ABS peptides at final concentrations of 10 μM were incubated alone or with 23 μM F-actin in F-actin buffer for 30 min in a total volume of 50 μl. The mixtures were centrifuged at 150,000×g for 2 h at 24° C. in a Beckman TLA-100 rotor. Supernatant and pellet fractions were resuspended in loading buffer and subjected to SDS-PAGE. The gel was stained with Coomassie Blue. The density of the band was measured using Software Image J.
Actin binding capabilities of the synthesized ABS peptides corresponding to putative ABSs in eNOS were evaluated by the F-actin binding spin-down assay. ABS peptides 326 (P326), control peptides, ABS peptides 492 (P492), and ABS peptides 245 (P245) at final concentrations of 10 μm were incubated for 30 min alone or with 23 μm F-actin in F-actin buffer containing 2.5 μM ATP and 2.5 μM DTT. After high speed centrifugation at 150,000×g for 2 h, the supernatants and pellets were subjected to SDS-PAGE analysis.

[12] = tested on: PAEC; assay: peroxynitrite formation in hyperoxic PAEC (APF fluorescence); format: cell-based, pigs; details: 95% oxygen 24 h, uric acid 100 μM
Procedure: as §1
To reduce β-actin availability to eNOS, the β-actin mRNA was silenced using its siRNA as previously reported by us (Kondrikov, D., et al. (2006) Am. J. Physiol. Lung Cell Mol. Physiol. 290, L41-L50).

Compound: RKKRRQRRRAAGARAYAA [control peptide TAT, reference compound]
- tyrosine nitration of proteins at 250, 100, 75, and 60 kDa, hyperoxia versus normoxia [1]: hyperoxia induced the increases in tyrosine nitration of proteins

Compound: COC(=O)[C@@H](N)CCCNC(=N)N[N+](=O)[O-] [L-NAME, N^G-nitro-1-arginine methyl ester, reference compound]
- inhibition of NO production [2]: 90%

Compound: AGARAYAA [control peptide for peptide 326, reference compound]
- β-actin-induced increase in NO production [3]: did not affect β-actin-induced changes in the production of NO, L-citrulline, and superoxide from eNOS
- β-actin-induced increase in L-citrulline production [4]: did not affect β-actin-induced changes in the production of NO, L-citrulline, and superoxide from eNOS
- β-actin-induced decrease in superoxide formation [5]: did not affect β-actin-induced changes in the production of NO, L-citrulline, and superoxide from eNOS

Compound: LGLRWYAL [ABS peptide 326]
- NO production from eNOS, peptide per se ([3]; without β-actin): did not affect NO and L-citrulline production and superoxide formation
- β-actin-induced increase in NO production [3]: prevented β-actin-induced increase in NO and L-citrulline production
- L-citrulline production from eNOS, peptide per se ([4]; without β-actin): did not affect NO and L-citrulline production and superoxide formation
- β-actin-induced increase in L-citrulline production [4]: prevented β-actin-induced increase in NO and L-citrulline production
- superoxide formation from eNOS, peptide per se ([5]; without β-actin): did not affect NO and L-citrulline production and superoxide formation
- β-actin-induced decrease in superoxide formation [5]: prevented
- β-actin-induced decrease in NADPH consumption [6]: prevented β-actin-induced decrease in NADPH consumption

Compound: O=S(=O)(O)c1cc(O)c(O)c(S(=O)(=O)O)c1 [tiron]
- increase in DHE fluorescence intensity (superoxide radical) in hyperoxic PAEC [7]: prevented the increase in the fluorescence intensity in hyperoxic PAEC

Compound: NCCN(CCN)/[N+]([O-])=N/O [NOC-18, reference compound]
- P326TAT-induced decrease in monolayer wound repair [8]: prevented P326TAT-induced decrease in monolayer wound repair

Compound: CCSC(=N)N [ETU, 2-ethyl-2-thiopseudourea, reference compound]
- P326TAT-induced increase in superoxide formation [9]: inhibited P326TAT-induced increase in superoxide formation
- superoxide generated from COS-7 cells, wild type versus eNOS mutant, in the presence of the agent [10]: the amounts of superoxide generated from COS-7 cells containing wild type and eNOS mutant were comparable

Compound: NSQLVRYAGYRQQDGSVRGDPANVEITEL [ABS peptide 245]
- peptide pulled down to the pellets with F-actin [11]: not pulled down to the pellets with F-actin

Compound: O=c1[nH]c(=O)c2[nH]c(=O)[nH]c2[nH]1 [uric acid, reference compound]
- hyperoxia-induced increase in APF fluorescence intensity (peroxynitrite) [12]: prevented hyperoxia-induced increase in the fluorescence intensity
